Reference: ChEMBL document CHEMBL1143305, “SAR and biological evaluation of analogues of a small molecule histone deacetylase inhibitor N-(2-aminophenyl)-4-((4-(pyridin-3-yl)pyrimidin-2-ylamino)methyl)benzamide (MGCD0103)” (Bioorg Med Chem Lett, 2009)

Assays:
[1] = tested on: Mus musculus; assay: Toxicity in mouse xenografted with human TSU-Pr1 cells at 5 to 20 mg/kg, po administered once daily for 12 days; type: organism-based; set-up: dose 5-20 mg/kg, route oral; details: in vivo, 288 h
[2] = Terminal half life in Sprague-Dawley rat at 2.5 mg/kg, iv up to 6 hrs; type: ADME, organism-based; set-up: dose 2.5 mg/kg, route intravenous; details: in vivo, read-out: beta t1/2 (converted)
[3] = biological target: Histone deacetylase 5 (Homo sapiens, UniProt Q9UQL6); assay: Inhibition of HDAC5
Histone deacetylase 5, sequence (Q9UQL6 whole entry): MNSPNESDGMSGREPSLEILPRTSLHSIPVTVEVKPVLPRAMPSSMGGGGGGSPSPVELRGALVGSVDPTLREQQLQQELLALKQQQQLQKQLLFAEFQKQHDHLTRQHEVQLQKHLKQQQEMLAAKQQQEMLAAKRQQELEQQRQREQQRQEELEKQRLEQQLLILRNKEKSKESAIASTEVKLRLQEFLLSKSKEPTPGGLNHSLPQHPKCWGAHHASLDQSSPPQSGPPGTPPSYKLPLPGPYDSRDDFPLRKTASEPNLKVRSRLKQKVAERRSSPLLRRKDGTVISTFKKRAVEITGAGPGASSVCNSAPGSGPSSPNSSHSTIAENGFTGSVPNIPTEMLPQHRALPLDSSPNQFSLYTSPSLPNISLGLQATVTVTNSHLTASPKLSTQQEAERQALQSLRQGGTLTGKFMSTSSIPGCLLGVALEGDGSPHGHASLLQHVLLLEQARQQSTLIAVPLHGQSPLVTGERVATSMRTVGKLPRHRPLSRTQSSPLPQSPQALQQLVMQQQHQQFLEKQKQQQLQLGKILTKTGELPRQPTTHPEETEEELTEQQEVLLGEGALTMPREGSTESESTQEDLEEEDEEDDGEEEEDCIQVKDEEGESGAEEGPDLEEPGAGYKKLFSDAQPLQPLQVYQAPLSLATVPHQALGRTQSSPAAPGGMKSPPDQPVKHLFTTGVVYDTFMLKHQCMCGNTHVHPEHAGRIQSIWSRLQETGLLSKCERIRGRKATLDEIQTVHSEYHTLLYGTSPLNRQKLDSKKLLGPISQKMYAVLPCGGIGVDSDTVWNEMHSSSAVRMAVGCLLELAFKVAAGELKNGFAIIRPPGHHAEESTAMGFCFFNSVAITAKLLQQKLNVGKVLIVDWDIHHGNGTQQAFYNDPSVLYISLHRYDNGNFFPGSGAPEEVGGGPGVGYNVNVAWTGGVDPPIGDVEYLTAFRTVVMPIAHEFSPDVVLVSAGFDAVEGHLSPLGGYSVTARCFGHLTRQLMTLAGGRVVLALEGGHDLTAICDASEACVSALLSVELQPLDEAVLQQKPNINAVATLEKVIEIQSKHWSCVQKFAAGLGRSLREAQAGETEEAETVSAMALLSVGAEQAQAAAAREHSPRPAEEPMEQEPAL

[4] = biological target: Histone deacetylase 3 (Homo sapiens, UniProt O15379); assay: Inhibition of HDAC3
Histone deacetylase 3, sequence (O15379 whole entry): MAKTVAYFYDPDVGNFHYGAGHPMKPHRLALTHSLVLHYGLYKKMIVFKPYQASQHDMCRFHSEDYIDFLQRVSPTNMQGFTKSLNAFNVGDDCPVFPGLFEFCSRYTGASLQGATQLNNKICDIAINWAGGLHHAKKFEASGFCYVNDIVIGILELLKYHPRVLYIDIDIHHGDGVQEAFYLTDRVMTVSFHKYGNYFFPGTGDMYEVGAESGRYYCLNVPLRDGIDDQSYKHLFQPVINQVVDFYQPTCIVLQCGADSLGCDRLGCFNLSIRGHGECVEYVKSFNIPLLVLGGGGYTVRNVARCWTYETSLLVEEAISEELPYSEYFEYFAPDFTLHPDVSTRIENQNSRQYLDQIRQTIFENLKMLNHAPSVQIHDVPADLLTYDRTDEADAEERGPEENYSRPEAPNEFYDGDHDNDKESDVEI

[5] = biological target: Histone deacetylase 1 (Homo sapiens, UniProt Q13547); assay: Inhibition of human recombinant HDAC1
Histone deacetylase 1, sequence (Q13547 whole entry): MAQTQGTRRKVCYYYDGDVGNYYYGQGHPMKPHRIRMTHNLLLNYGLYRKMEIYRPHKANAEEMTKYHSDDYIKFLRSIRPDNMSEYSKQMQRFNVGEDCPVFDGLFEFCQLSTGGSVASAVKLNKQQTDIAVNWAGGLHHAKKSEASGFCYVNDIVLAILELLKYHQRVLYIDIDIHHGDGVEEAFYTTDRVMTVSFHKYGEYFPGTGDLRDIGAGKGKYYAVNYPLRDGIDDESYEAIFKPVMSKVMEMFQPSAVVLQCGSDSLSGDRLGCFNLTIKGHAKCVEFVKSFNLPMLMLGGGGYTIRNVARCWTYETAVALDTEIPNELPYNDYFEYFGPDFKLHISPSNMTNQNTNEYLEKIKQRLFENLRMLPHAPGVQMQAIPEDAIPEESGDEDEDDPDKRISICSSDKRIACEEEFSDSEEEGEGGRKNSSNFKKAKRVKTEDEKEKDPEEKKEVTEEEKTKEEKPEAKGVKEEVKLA

[6] = Clearance in Sprague-Dawley rat at 2.5 mg/kg, iv up to 6 hrs; type: ADME, organism-based; set-up: dose 2.5 mg/kg, route intravenous; details: in vivo
[7] = Antitumor activity against human TSU-Pr1 cells xenografted in mouse at 10 mg/kg, po administered once daily for 12 days relative to control; type: functional
[8] = biological target: T1, Histone deacetylase 7 (Homo sapiens, UniProt Q8WUI4); assay: Inhibition of HDAC7
T1 sequence (Q8WUI4 whole entry): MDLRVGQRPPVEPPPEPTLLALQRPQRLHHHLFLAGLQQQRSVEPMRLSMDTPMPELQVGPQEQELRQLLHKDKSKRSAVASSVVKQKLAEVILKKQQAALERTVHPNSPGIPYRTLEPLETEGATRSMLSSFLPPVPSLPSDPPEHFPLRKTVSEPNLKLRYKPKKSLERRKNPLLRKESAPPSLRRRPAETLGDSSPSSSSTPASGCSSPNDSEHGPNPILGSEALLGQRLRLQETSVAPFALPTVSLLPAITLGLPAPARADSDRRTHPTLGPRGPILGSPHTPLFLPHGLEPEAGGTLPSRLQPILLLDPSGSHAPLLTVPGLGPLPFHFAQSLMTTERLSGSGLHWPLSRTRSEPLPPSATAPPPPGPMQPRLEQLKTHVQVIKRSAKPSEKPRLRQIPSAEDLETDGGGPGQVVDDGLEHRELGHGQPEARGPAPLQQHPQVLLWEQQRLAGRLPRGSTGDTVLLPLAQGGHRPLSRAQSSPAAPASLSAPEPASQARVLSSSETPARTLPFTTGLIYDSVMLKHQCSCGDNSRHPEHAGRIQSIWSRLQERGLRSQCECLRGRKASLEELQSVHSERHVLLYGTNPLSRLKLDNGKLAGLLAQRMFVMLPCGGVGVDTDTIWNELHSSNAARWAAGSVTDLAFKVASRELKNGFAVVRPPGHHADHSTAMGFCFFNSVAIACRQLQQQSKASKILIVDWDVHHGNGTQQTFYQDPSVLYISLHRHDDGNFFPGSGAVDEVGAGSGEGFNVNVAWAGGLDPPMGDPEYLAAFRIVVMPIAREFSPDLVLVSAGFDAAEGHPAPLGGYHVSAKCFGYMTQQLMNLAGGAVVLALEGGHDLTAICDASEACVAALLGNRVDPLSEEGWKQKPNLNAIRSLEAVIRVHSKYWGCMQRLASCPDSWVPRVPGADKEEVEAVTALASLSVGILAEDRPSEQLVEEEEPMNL

[9] = tested on: HCT-116; assay: cells; details: Homo sapiens
Description: Antiproliferative activity against human HCT116 cells by MTT assay

[10] = tested on: Mus musculus; assay: Toxicity in mouse xenografted with human AZ-521 cells at 5 to 20 mg/kg, po administered once daily for 12 days; type: organism-based; set-up: dose 5-20 mg/kg, route oral; details: in vivo, 288 h
[11] = Tmax in Sprague-Dawley rat at 5 mg/kg, po up to 6 hrs; type: ADME, organism-based; set-up: dose 5 mg/kg, route oral; details: in vivo
[12] = tested on: T-24; assay: Induction of histone H4 hyperacetylation in human T24 cells after 16 hrs by immunoblotting; type: functional, cell-based; details: T-24, 16 h
[13] = Antitumor activity against human TSU-Pr1 cells xenografted in mouse at 20 mg/kg, po administered once daily for 12 days relative to control; type: functional
[14] = tested on: HMEC; assay: Antiproliferative activity against HMEC by MTT assay; type: cell-based; details: Homo sapiens
[15] = Oral bioavailability in Sprague-Dawley rat at 5 mg/kg up to 6 hrs; type: ADME, organism-based; details: in vivo

## Nc1ccccc1NC(=O)c1ccc(CNc2nccc(-c3ccn[nH]3)n2)cc1
[1]
  Activity: Non-toxic
[2]
  half-life: 72 min
[3]
  IC50: > 10000 nM
[4]
  IC50: 320 nM
[5]
  IC50: 140 nM
[6]
  clearance: 9.17 mL/min/kg
[7]
  T/C: 61%
[8]
  IC50: > 20000 nM
[9]
  IC50: 300 nM
[10]
  Activity: Non-toxic
[11]
  Tmax: 30 min
[12]
  EC50: 1000 nM
[13]
  T/C: 48%
[14]
  IC50: 24000 nM
[15]
  bioavailability: 16%
